The values that follow come from patent US7897593B2, “HIV integrase inhibitors” (priority 2006, dated 2011).

For assay [1], the system named is recombinant NL-Rluc virus. The experiment in a line: Inhibition of HIV replication. It is filed as cell-based. The following applies: Human immunodeficiency virus 1, read-out: Antiviral Activity, NL-RLuc virus; three serum conditions described, the one tabulated is not stated.
For assay [2], the target named is T1, HIV-integrase (Human immunodeficiency virus type 1 group M subtype B, UniProt P12497).
T1 construct: Recombinant integrase (0.26 ng) was incubated with the beads
The experiment in a line: HIV-Integrase Inhibition Activity (SPA strand transfer assay). It is filed as biochemical. The note with it: recombinant integrase, SPA beads, P33 labeled target DNA. Here is the method:
HIV-Integrase InhibitionActivity. To evaluate in-vitro activity against HIV-integrase, 5 pmole of biotin labeled substrate DNA was bound to 100 μg of Streptavidin coated PVT SPA beads (Amersham Pharmacia Biotech). Recombinant integrase (0.26 ng) was incubated with the beads for 90 min at 37° C. Unbound enzyme was removed by washing the complex followed by addition of inhibitors and 0.1 fmol of P33 labeled target DNA. The reaction was stopped by adding EDTA to a final concentration of 10 mM. Samples were counted in TopCountNXT (Packard) and the CPM was used as a measure of integration. The reaction condition was as described in A. Engelman and R. Craigie, J. Virol 69, 5908-5911 (1995). The sequences of substrate and target DNA were described in Nucleic Acid Research 22, 1121-1122 (1994). Activity equal to A refers to a compound having IC50=0.001 to 0.01 μM B=0.01-0.1, and C≧0.1 μM respectively.

Consider `Cc1ncn(-c2cc(F)ccc2CNC(=O)c2nc3n(c(=O)c2O)CCOC32CCN(S(=O)(=O)c3cc(F)ccc3C)CC2)n1` [Example 20], for which the EC50 in assay [1] is 0.001 to 0.01 µM. In addition, the IC50 in assay [2] is 0.001 to 0.01 µM.
As for `Cc1ccc(F)cc1S(=O)(=O)N1CCC2(CC1)OCCn1c2nc(C(=O)NCc2ccc(F)cc2-n2ncnc2C)c(O)c1=O` [Example 21], the EC50 in assay [1] was 0.001 to 0.01 µM. For the same compound, the IC50 in assay [2] lay within 0.01 to 0.1 µM.
Turning to `O=C(NCc1ccc(F)cc1)c1nc2n(c(=O)c1O)CCOC21CCN(C(=O)OCc2ccccc2)CC1` [Example 22], in assay [1], the EC50 lay in the range of 0.001 to 0.01 µM. In addition, in assay [2], the IC50 is 0.001 to 0.01 µM.
With `Cc1ncnn1-c1cc(F)ccc1CNC(=O)c1nc2n(c(=O)c1O)CCOC21CCN(C(=O)OCc2ccccc2)CC1` [Example 23], in assay [1], the EC50 was in the range of 0.001 to 0.01 µM. Moreover, the IC50 in assay [2] was 0.01 to 0.1 µM.
For `CNC(=O)c1nc2n(c(=O)c1O)CCOC21CCN(S(=O)(=O)c2cc(F)ccc2C)CC1` [Example 25, 1-(5-Fluoro-2-methylphenylsulfonyl)-3′-hydroxy-N-methyl-4′-oxo-6′,7′-dihydro-4′H-spiro[piperidine-4,9′-pyrimido[2,1-c][1,4]oxazine]-2′-carboxamide] the same measures were above 0.1 µM and at least 0.1 µM.
Consider `COC(=O)C(=O)N1CCC2(CC1)OCCn1c2nc(C(=O)NCc2ccc(F)cc2-n2ncnc2C)c(O)c1=O` [Example 26, Methyl 2-(2′-(4-fluoro-2-(5-methyl-1H-1,2,4-triazol-1-yl)benzylcarbamoyl)-3′-hydroxy-4′-oxo-6′,7′-dihydro-4′H-spiro[piperidine-4,9′-pyrimido[2,1-c][1,4]oxazine]-1-yl)-2-oxoacetate], for which the EC50 in assay [1] is 0.01 to 0.1 µM. Further, the concentration for half-maximal inhibition (IC50) in assay [2] fell in the range of 0.01 to 0.1 µM.
On to `Cc1ncnn1-c1cc(F)ccc1CNC(=O)c1nc2n(c(=O)c1O)CCOC21CCN(C(=O)C(=O)N(C)C)CC1` [Example 27, 1-(2-(Dimethylamino)-2-oxoacetyl)-N-(4-fluoro-2-(5-methyl-1H-1,2,4-triazol-1-yl)benzyl)-3′-hydroxy-4′-oxo-6′,7′-dihydro-4′H-spiro[piperidine-4,9′-pyrimido[2,1-c][1,4]oxazine]-2′-carboxamide], for which, in assay [1], the EC50 was above 0.1 µM. For the same compound, the IC50 in assay [2] fell in the range of 0.01 to 0.1 µM.
As to `COC(=O)C(=O)N1CCC2(CC1)OCCn1c2nc(C(=O)NCc2ccc(F)cc2)c(O)c1=O` [Example 28, Methyl 2-(2′-(4-fluorobenzylcarbamoyl)-3′-hydroxy-4′-oxo-6′,7′-dihydro-4′H-spiro[piperidine-4,9′-pyrimido[2,1-c][1,4]oxazine]-1-yl)-2-oxoacetate], the EC50 in assay [1] is 0.01 to 0.1 µM. For the same compound, in assay [2], the IC50 lay in the range of 0.001 to 0.01 µM.
`O=C(O)C(=O)N1CCC2(CC1)OCCn1c2nc(C(=O)NCc2ccc(F)cc2)c(O)c1=O` [Example 29, 2-(2′-(4-Fluorobenzylcarbamoyl)-3′-hydroxy-4′-oxo-6′,7′-dihydro-4′H-spiro[piperidine-4,9′-pyrimido[2,1-c][1,4]oxazine]-1-yl)-2-oxoacetic acid]: the EC50 in assay [1] is above 0.1 µM. The IC50 in assay [2] lay within 0.001 to 0.01 µM.
For `CN(C)C(=O)C(=O)N1CCC2(CC1)OCCn1c2nc(C(=O)NCc2ccc(F)cc2)c(O)c1=O` [Example 30, 1-(2-(Dimethylamino)-2-oxoacetyl)-N-(4-fluorobenzyl)-3′-hydroxy-4′-oxo-6′,7′-dihydro-4′H-spiro[piperidine-4,9′-pyrimido[2,1-c][1,4]oxazine]-2′-carboxamide] the same measures were 0.01 to 0.1 µM and 0.001 to 0.01 µM.
For `CCOC(=O)N1CCC2(CC1)OCCn1c2nc(C(=O)NCc2ccc(F)cc2)c(O)c1=O` [Example 31, Ethyl 2′-(4-fluorobenzylcarbamoyl)-3′-hydroxy-4′-oxo-6′,7′-dihydro-4′H-spiro[piperidine-4,9′-pyrimido[2,1-c][1,4]oxazine]-1-carboxylate] the same measures were 0.001 to 0.01 µM and 0.001 to 0.01 µM.
With `Cc1ncn(-c2cc(F)ccc2CNC(=O)c2nc3n(c(=O)c2O)CCOC32CCN(C(=O)C(=O)N(C)C)CC2)n1` [Example 32, 1-(2-(Dimethylamino)-2-oxoacetyl)-N-(4-fluoro-2-(3-methyl-1H-1,2,4-triazol-1-yl)benzyl)-3′-hydroxy-4′-oxo-6′,7′-dihydro-4′H-spiro[piperidine-4,9′-pyrimido[2,1-c][1,4]oxazine]-2′-carboxamide], in assay [1], the EC50 was above 0.1 µM. Besides, the IC50 in assay [2] was 0.01 to 0.1 µM.
On to `CCOC(=O)N1CCC2(CC1)OCCn1c2nc(C(=O)NCc2ccc(F)cc2-n2cnc(C)n2)c(O)c1=O` [Example 33, Ethyl 2′-(4-fluoro-2-(3-methyl-1H-1,2,4-triazol-1-yl)benzylcarbamoyl)-3′-hydroxy-4′-oxo-6′,7′-dihydro-4′H-spiro[piperidine-4,9′-pyrimido[2,1-c][1,4]oxazine]-1-carboxylate], for which the EC50 in assay [1] fell in the range of 0.001 to 0.01 µM. Further, in assay [2], the IC50 lay within 0.001 to 0.01 µM.
For `O=C(NCc1ccc(F)cc1)c1nc2n(c(=O)c1O)CCOC21CCN(C(=O)OCc2ccccc2)C1` (stereo not shown) [Example 36, Benzyl 2-(4-fluorobenzylcarbamoyl)-3-hydroxy-4-oxo-6,7-dihydro-4H-spiro[pyrimido[2,1-c][1,4]oxazine-9,3′-pyrrolidine]-1′-carboxylate], the EC50 in assay [1] fell in the range of 0.001 to 0.01 µM. In addition, the IC50 in assay [2] is 0.001 to 0.01 µM.
With `Cc1ncnn1-c1cc(F)ccc1CNC(=O)c1nc2n(c(=O)c1O)CCOC21CCN(C(=O)OCc2ccccc2)C1` (stereo not shown) [Example 37, Benzyl 2-(4-fluoro-2-(5-methyl-1H-1,2,4-triazol-1-yl)benzylcarbamoyl)-3-hydroxy-4-oxo-6,7-dihydro-4H-spiro[pyrimido[2,1-c][1,4]oxazine-9,3′-pyrrolidine]-1′-carboxylate], the EC50 in assay [1] was in the range of 0.01 to 0.1 µM. Moreover, the IC50 in assay [2] lay within 0.01 to 0.1 µM.
As for `CS(=O)(=O)N1CCC2(C1)OCCn1c2nc(C(=O)NCc2ccc(F)cc2)c(O)c1=O` (stereo not shown) [Example 38, N-(4-Fluorobenzyl)-3-hydroxy-1′-(methylsulfonyl)-4-oxo-6,7-dihydro-4H-spiro[pyrimido[2,1-c][1,4]oxazine-9,3′-pyrrolidine]-2-carboxamide], the EC50 in assay [1] is 0.01 to 0.1 µM. The IC50 in assay [2] was 0.001 to 0.01 µM.
Take `Cc1ncnn1-c1cc(F)ccc1CNC(=O)c1nc2n(c(=O)c1O)CCOC21CCN(S(C)(=O)=O)C1` (stereo not shown) [Example 39, N-(4-Fluoro-2-(5-methyl-1H-1,2,4-triazol-1-yl)benzyl)-3-hydroxy-1′-(methylsulfonyl)-4-oxo-6,7-dihydro-4H-spiro[pyrimido[2,1-c][1,4]oxazine-9,3′-pyrrolidine]-2-carboxamide]: the EC50 in assay [1] is 0.01 to 0.1 µM. Moreover, the IC50 in assay [2] was in the range of 0.01 to 0.1 µM.
Regarding `CN(C)C(=O)C(=O)N1CCC2(C1)OCCn1c2nc(C(=O)NCc2ccc(F)cc2)c(O)c1=O` (stereo not shown) [Example 40, 1′-(2-(Dimethylamino)-2-oxoacetyl)-N-(4-fluorobenzyl)-3-hydroxy-4-oxo-6,7-dihydro-4H-spiro[pyrimido[2,1-c][1,4]oxazine-9, 3′-pyrrolidine]-2-carboxamide], in assay [1], the EC50 is 0.01 to 0.1 µM. Further, the IC50 in assay [2] lay within 0.001 to 0.01 µM.
Regarding `Cc1ncnn1-c1cc(F)ccc1CNC(=O)c1nc2n(c(=O)c1O)CCOC21CCN(C(=O)C(=O)N(C)C)C1` (stereo not shown) [Example 41, 1′-(2-(Dimethylamino)-2-oxoacetyl)-N-(4-fluoro-2-(5-methyl-1H-1,2,4-triazol-1-yl)benzyl)-3-hydroxy-4-oxo-6,7-dihydro-4H-spiro[pyrimido[2,1-c][1,4]oxazine-9,3′-pyrrolidine]-2-carboxamide], the EC50 in assay [1] is above 0.1 µM. For the same compound, in assay [2], the IC50 was in the range of 0.01 to 0.1 µM.
The like results for `CC(C)OC(=O)N1CCC2(C1)OCCn1c2nc(C(=O)NCc2ccc(F)cc2)c(O)c1=O` (stereo not shown) [Example 42, Isopropyl 2-(4-fluorobenzylcarbamoyl)-3-hydroxy-4-oxo-6,7-dihydro-4H-spiro[pyrimido[2,1-c][1,4]oxazine-9,3′-pyrrolidine]-1′-carboxylate] were, in that order, 0.001 to 0.01 µM and 0.001 to 0.01 µM.
The like results for `Cc1ncnn1-c1cc(F)ccc1CNC(=O)c1nc2n(c(=O)c1O)CCOC21CCN(C(=O)OC(C)C)C1` (stereo not shown) [Example 43, Isopropyl 2-(4-fluoro-2-(5-methyl-1H-1,2,4-triazol-1-yl)benzylcarbamoyl)-3-hydroxy-4-oxo-6,7-dihydro-4H-spiro[pyrimido[2,1-c][1,4]oxazine-9,3′-pyrrolidine]-1′-carboxylate] were, in that order, 0.01 to 0.1 µM and 0.01 to 0.1 µM.
Turning to `CC1CN(S(=O)(=O)c2cc(F)ccc2CNC(=O)c2nc3n(c(=O)c2O)CCCOC32CCN(C(=O)OCc3ccccc3)CC2)CC(C)N1` (stereo not shown) [Example 49], the EC50 in assay [1] lay within 0.01 to 0.1 µM. Besides, the IC50 in assay [2] was 0.01 to 0.1 µM.
On to `CN1CCN(S(=O)(=O)c2cc(F)ccc2CNC(=O)c2nc3n(c(=O)c2O)CCCOC32CCN(C(=O)OCc3ccccc3)CC2)CC1` [Example 50], for which the EC50 in assay [1] fell in the range of 0.01 to 0.1 µM. The IC50 in assay [2] is 0.01 to 0.1 µM.
On to `O=C(NCc1ccc(F)cc1S(=O)(=O)N1CCOCC1)c1nc2n(c(=O)c1O)CCCOC21CCN(C(=O)OCc2ccccc2)CC1` [Example 52], for which the EC50 in assay [1] was 0.01 to 0.1 µM. In addition, the IC50 in assay [2] is 0.01 to 0.1 µM.
On to `O=C(NCc1ccc(F)cc1)c1nc2n(c(=O)c1O)CCOCC21CCN(C(=O)OCc2ccccc2)CC1` [Example 54], for which, in assay [1], the EC50 was in the range of 0.01 to 0.1 µM. In assay [2], the IC50 lay within 0.01 to 0.1 µM.
With `O=C(NCc1ccc(F)cc1)c1nc2n(c(=O)c1O)CCCCC21CCN(C(=O)OCc2ccccc2)CC1` [Example 56], the EC50 in assay [1] fell in the range of 0.01 to 0.1 µM. Moreover, in assay [2], the IC50 lay in the range of 0.01 to 0.1 µM.

As usually defined, the IC50 is the midpoint of a concentration-inhibition curve.
